Assay results as given in patent US11912660B2, “S6K1 protein kinase inhibitors as cancer therapeutics” (Xavier University of Louisiana, priority 2020, dated 2024).
“And” between values parts separate entries of the source, which are not always exact repeats. Equal entries are not always repeated. Where two headings read alike, the source gives them in different places.

How the values were obtained:
Experiment in all cases: SelectScreen kinase panel screening
Format in all cases: biochemical
AXL = AXL (Homo sapiens (Human), UniProt P30530)
Excerpt: (§1) The complete list of the kinases given in Table 1 and their details can be found on the ThermoFisher website for Biochemical Kinase assays (thermofisher.com/us/en/home/industrial/pharma-biopharma/drug-discovery-development/target-and-lead-identification-and-validation/kinasebiology.html).

CHEK1 (CHK1) = CHEK1 (CHK1) (Homo sapiens (Human), UniProt O14757)
Excerpt: as §1

FRAP1 (mTOR) = FRAP1 (mTOR) (Homo sapiens (Human), UniProt P42345)
Excerpt: as §1

BTK = BTK (Homo sapiens (Human), UniProt Q06187)
Excerpt: as §1

MATK (HYL) = MATK (HYL) (Homo sapiens (Human), UniProt P42679)
Excerpt: as §1

SGK (SGK1) = SGK (SGK1) (Homo sapiens (Human), UniProt O00141)
Excerpt: as §1

FLT1 (VEGFR1) = FLT1 (VEGFR1) (Homo sapiens (Human), UniProt P17948)
Excerpt: as §1

MET (cMet) = MET (cMet) (Homo sapiens (Human), UniProt P08581)
Excerpt: as §1

NEK2 = NEK2 (Homo sapiens (Human), UniProt P51955)
Excerpt: as §1

CDK9/cyclin T1 = CDK9/cyclin T1 (Homo sapiens (Human), UniProt P50750)
Excerpt: as §1

EGFR (ErbB1) = EGFR (ErbB1) (Homo sapiens (Human), UniProt P00533)
Excerpt: as §1

JAK3 = JAK3 (Homo sapiens (Human), UniProt P52333)
Excerpt: as §1

SPHK1 = SPHK1 (Homo sapiens (Human), UniProt Q9NYA1); conditions: read-out: % Inhibition class
Excerpt: as §1

KDR (VEGFR2) = KDR (VEGFR2) (Homo sapiens (Human), UniProt P35968)
Excerpt: as §1

ERBB2 (HER2) = ERBB2 (HER2) (Homo sapiens (Human), UniProt P04626)
Excerpt: as §1

FGR = FGR (Homo sapiens (Human), UniProt P09769)
Excerpt: as §1

TBK1 = TBK1 (Homo sapiens (Human), UniProt Q9UHD2)
Excerpt: as §1

NTRK1 (TRKA) = NTRK1 (TRKA) (Homo sapiens (Human), UniProt P04629)
Excerpt: as §1

PRKCB2 (PKC beta II) = PRKCB2 (PKC beta II) (Homo sapiens (Human), UniProt P05771)
Excerpt: as §1

ABL2 (Arg) = ABL2 (Arg) (Homo sapiens (Human), UniProt P42684)
Excerpt: as §1

FLT4 (VEGFR3) = FLT4 (VEGFR3) (Homo sapiens (Human), UniProt P35916)
Excerpt: as §1

EPHA2 = EPHA2 (Homo sapiens (Human), UniProt P29317)
Excerpt: as §1

FER = FER (Homo sapiens (Human), UniProt P16591)
Excerpt: as §1

SRC = SRC (Homo sapiens (Human), UniProt P12931)
Excerpt: as §1

CDK7/cyclin H/MNAT1 = CDK7/cyclin H/MNAT1 (Homo sapiens (Human), UniProt P50613)
Excerpt: as §1

RAF1 (cRAF) Y340D Y341D = RAF1 (cRAF) Y340D Y341D (Homo sapiens (Human), UniProt P04049, Y340D/Y341D)
Excerpt: as §1

EPHB4 = EPHB4 (Homo sapiens (Human), UniProt P54760)
Excerpt: as §1

CDK5/p25 = CDK5/p25 (Homo sapiens (Human), UniProt Q00535)
Excerpt: as §1

EPHA1 = EPHA1 (Homo sapiens (Human), UniProt P21709)
Excerpt: as §1

PAK4 = PAK4 (Homo sapiens (Human), UniProt O96013)
Excerpt: as §1

CSNK2A1 (CK2 alpha 1) = CSNK2A1 (CK2 alpha 1) (Homo sapiens (Human), UniProt P68400)
Excerpt: as §1

Sequence of CDK9/cyclin T1 (P50750 whole entry): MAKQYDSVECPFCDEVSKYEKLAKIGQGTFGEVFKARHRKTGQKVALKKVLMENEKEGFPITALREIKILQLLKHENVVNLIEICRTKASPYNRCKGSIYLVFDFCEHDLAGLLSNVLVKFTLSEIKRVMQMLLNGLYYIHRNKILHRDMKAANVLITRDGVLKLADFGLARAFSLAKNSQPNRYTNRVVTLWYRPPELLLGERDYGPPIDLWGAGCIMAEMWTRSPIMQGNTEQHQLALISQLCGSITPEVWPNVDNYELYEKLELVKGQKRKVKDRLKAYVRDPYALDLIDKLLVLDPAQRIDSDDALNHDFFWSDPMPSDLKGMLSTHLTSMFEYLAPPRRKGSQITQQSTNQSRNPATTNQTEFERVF
Sequence of CDK9/cyclin T1 (O60563 whole entry partner): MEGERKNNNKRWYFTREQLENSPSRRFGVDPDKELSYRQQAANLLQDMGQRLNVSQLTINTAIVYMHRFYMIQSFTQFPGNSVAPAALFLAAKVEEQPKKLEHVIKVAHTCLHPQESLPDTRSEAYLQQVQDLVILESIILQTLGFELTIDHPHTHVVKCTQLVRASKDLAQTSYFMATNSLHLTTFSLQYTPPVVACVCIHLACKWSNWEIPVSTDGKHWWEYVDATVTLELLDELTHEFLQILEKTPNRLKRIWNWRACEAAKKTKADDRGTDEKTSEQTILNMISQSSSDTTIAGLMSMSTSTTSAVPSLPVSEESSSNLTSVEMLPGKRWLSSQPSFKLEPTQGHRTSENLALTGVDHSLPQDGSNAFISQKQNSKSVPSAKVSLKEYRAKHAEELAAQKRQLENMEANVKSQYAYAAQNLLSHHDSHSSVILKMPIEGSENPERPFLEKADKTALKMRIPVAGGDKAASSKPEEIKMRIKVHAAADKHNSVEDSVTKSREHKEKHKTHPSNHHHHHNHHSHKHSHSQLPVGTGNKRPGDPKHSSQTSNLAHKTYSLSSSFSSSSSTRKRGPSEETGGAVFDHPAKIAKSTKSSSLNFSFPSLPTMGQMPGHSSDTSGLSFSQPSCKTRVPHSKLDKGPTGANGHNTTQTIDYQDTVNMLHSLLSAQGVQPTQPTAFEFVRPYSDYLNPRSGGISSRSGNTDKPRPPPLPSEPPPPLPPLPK
Sequence of CDK7/cyclin H/MNAT1 (P50613 whole entry): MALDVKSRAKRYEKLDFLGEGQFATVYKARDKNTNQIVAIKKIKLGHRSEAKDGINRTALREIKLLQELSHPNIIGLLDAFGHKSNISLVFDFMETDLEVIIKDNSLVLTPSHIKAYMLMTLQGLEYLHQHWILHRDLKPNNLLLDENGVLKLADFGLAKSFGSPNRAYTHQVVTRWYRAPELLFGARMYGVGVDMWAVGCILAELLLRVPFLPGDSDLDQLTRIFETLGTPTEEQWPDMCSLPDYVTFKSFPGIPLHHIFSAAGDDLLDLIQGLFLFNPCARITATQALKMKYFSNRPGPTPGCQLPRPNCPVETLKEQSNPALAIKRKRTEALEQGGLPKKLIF
Sequence of CDK7/cyclin H/MNAT1 (P51946 whole entry partner): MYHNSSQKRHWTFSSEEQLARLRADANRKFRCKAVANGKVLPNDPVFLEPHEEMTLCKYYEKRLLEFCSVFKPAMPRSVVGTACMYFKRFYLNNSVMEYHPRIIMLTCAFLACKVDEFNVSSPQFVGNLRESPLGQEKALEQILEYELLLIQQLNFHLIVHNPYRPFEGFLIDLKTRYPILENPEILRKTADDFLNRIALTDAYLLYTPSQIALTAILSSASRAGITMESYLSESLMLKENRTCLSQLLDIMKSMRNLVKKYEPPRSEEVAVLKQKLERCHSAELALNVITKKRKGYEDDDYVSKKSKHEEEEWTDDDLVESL
Sequence of CDK7/cyclin H/MNAT1 (P51948 whole entry partner): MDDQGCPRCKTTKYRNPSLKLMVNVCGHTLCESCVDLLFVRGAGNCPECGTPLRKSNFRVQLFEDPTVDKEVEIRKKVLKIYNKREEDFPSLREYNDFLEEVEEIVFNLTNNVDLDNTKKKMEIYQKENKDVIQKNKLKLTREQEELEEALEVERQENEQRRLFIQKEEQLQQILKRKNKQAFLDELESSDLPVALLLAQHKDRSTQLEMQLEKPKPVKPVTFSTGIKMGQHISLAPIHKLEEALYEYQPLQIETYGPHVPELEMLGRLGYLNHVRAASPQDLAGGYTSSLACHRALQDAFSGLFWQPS
Sequence of EPHB4 (P54760 16-987): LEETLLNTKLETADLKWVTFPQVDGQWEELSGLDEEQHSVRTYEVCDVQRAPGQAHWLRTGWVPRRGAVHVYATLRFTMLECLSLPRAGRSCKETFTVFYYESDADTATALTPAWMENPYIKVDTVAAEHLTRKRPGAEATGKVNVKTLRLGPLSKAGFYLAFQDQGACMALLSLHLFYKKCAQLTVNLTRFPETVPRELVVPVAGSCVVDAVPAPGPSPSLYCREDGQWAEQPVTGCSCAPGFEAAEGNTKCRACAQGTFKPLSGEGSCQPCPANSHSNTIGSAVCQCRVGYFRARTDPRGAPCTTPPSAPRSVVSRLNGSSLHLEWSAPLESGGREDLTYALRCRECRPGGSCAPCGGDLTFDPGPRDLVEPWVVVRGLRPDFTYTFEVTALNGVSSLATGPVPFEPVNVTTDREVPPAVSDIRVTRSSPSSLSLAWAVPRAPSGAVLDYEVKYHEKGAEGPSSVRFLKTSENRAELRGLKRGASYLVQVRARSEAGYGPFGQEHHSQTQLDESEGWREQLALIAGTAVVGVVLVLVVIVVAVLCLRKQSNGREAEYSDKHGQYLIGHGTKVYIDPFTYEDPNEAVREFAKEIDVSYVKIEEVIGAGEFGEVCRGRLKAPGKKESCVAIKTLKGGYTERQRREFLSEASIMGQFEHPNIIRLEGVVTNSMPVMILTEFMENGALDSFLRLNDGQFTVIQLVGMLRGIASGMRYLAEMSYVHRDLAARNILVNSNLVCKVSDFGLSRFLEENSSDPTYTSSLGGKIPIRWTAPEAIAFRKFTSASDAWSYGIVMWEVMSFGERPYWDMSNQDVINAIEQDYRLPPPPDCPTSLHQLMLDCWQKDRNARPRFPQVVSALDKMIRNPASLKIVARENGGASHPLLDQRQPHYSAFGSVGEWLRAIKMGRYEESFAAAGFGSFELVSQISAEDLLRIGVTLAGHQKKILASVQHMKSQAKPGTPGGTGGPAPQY
Sequence of ERBB2 (HER2) (P04626 23-1255): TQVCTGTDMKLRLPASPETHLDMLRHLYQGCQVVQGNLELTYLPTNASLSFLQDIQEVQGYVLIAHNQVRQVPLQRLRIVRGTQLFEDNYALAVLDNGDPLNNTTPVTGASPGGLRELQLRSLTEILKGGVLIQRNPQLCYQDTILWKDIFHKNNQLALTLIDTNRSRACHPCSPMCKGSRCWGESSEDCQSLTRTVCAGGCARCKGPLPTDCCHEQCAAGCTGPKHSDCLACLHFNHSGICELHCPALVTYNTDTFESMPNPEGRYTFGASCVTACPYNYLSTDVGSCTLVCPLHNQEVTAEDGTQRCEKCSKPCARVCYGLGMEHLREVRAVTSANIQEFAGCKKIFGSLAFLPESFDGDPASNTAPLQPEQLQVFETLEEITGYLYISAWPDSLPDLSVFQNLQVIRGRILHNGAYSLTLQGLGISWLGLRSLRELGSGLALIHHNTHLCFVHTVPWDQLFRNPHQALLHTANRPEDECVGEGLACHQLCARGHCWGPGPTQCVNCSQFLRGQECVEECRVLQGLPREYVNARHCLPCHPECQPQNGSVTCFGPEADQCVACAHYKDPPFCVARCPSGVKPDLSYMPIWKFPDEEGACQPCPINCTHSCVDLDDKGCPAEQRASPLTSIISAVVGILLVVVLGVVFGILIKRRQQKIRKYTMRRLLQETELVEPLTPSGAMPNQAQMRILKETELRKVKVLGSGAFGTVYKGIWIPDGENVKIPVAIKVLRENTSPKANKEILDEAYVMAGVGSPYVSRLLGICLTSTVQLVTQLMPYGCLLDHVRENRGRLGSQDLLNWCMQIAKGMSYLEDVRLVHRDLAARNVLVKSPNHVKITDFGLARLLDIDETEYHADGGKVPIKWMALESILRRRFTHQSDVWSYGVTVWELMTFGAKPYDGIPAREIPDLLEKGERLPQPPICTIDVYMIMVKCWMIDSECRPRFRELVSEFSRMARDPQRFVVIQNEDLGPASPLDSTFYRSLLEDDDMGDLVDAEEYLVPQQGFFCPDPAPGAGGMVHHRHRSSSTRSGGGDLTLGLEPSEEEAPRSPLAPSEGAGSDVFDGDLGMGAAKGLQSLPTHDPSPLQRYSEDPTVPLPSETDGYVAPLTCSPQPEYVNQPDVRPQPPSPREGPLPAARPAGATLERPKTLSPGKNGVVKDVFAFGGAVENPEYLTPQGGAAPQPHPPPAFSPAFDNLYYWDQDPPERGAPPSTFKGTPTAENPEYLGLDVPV
Sequence of CHEK1 (CHK1) (O14757 whole entry): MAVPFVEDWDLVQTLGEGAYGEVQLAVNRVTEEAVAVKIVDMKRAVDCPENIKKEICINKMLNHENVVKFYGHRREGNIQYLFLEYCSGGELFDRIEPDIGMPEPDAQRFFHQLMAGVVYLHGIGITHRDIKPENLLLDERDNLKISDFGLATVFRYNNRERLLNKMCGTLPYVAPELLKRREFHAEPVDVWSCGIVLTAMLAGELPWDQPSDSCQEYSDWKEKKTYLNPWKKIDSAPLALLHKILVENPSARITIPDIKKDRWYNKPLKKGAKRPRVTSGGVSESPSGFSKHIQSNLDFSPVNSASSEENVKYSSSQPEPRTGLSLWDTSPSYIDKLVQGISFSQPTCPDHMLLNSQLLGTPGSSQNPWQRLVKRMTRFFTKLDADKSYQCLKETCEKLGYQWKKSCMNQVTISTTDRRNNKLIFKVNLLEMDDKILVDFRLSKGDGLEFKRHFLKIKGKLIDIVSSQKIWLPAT

Nc1cc(N)c2c(c1)C(=O)NC2=O [RJ1, 4,6-diaminoisoindoline-1,3-dione]
inhibition at 10 µM (AXL; read-out: % Inhibition): 10%
inhibition at 10 µM (AXL; read-out: % Inhibition class): < 40%
inhibition at 10 µM (CHEK1 (CHK1); read-out: % Inhibition): 72%
inhibition at 10 µM (CHEK1 (CHK1); read-out: % Inhibition class): 40 to 80%
inhibition at 10 µM (FRAP1 (mTOR); read-out: % Inhibition): 6%
inhibition at 10 µM (FRAP1 (mTOR); read-out: % Inhibition class): < 40%
inhibition at 10 µM (BTK; read-out: % Inhibition): 43%
inhibition at 10 µM (BTK; read-out: % Inhibition class): 40 to 80%
inhibition at 10 µM (MATK (HYL); read-out: % Inhibition): -5%
inhibition at 10 µM (MATK (HYL); read-out: % Inhibition class): < 40%
inhibition at 10 µM (SGK (SGK1); read-out: % Inhibition): 50%
inhibition at 10 µM (SGK (SGK1); read-out: % Inhibition class): 40 to 80%
inhibition at 10 µM (FLT1 (VEGFR1); read-out: % Inhibition): 18%
inhibition at 10 µM (FLT1 (VEGFR1); read-out: % Inhibition class): < 40%
inhibition at 10 µM (MET (cMet); read-out: % Inhibition): -4%
inhibition at 10 µM (MET (cMet); read-out: % Inhibition class): < 40%
inhibition at 10 µM (NEK2; read-out: % Inhibition): -20%
inhibition at 10 µM (NEK2; read-out: % Inhibition class): < 40%
% Inhibition (CDK9/cyclin T1; 10 μM): 16%
inhibition at 10 µM (CDK9/cyclin T1; read-out: % Inhibition): 10%
inhibition at 10 µM (CDK9/cyclin T1; read-out: % Inhibition class): < 40%
inhibition at 10 µM (EGFR (ErbB1); read-out: % Inhibition): 12%
inhibition at 10 µM (EGFR (ErbB1); read-out: % Inhibition class): < 40%
inhibition at 10 µM (JAK3; read-out: % Inhibition): 28%
inhibition at 10 µM (JAK3; read-out: % Inhibition class): < 40%
inhibition at 10 µM (SPHK1): < 40%
inhibition at 10 µM (KDR (VEGFR2); read-out: % Inhibition): 56%
inhibition at 10 µM (KDR (VEGFR2); read-out: % Inhibition class): 40 to 80%
inhibition at 10 µM (ERBB2 (HER2); read-out: % Inhibition): 6%
inhibition at 10 µM (ERBB2 (HER2); read-out: % Inhibition class): < 40%
inhibition at 10 µM (FGR; read-out: % Inhibition): 51%
inhibition at 10 µM (FGR; read-out: % Inhibition class): 40 to 80%
inhibition at 10 µM (TBK1; read-out: % Inhibition): 18%
inhibition at 10 µM (TBK1; read-out: % Inhibition class): < 40%
inhibition at 10 µM (NTRK1 (TRKA); read-out: % Inhibition): 5%
inhibition at 10 µM (NTRK1 (TRKA); read-out: % Inhibition class): < 40%
inhibition at 10 µM (PRKCB2 (PKC beta II); read-out: % Inhibition): 23%
inhibition at 10 µM (PRKCB2 (PKC beta II); read-out: % Inhibition class): < 40%
inhibition at 10 µM (ABL2 (Arg); read-out: % Inhibition): 54%
inhibition at 10 µM (ABL2 (Arg); read-out: % Inhibition class): 40 to 80%
inhibition at 10 µM (FLT4 (VEGFR3); read-out: % Inhibition): 55%
inhibition at 10 µM (FLT4 (VEGFR3); read-out: % Inhibition class): 40 to 80%
inhibition at 10 µM (EPHA2; read-out: % Inhibition): 16%
inhibition at 10 µM (EPHA2; read-out: % Inhibition class): < 40%
inhibition at 10 µM (FER; read-out: % Inhibition): 23%
inhibition at 10 µM (FER; read-out: % Inhibition class): < 40%
inhibition at 10 µM (SRC; read-out: % Inhibition): 9%
inhibition at 10 µM (SRC; read-out: % Inhibition class): < 40%
% Inhibition (CDK7/cyclin H/MNAT1; 10 μM): 1% and −1%
inhibition at 10 µM (CDK7/cyclin H/MNAT1; read-out: % Inhibition class): < 40%
inhibition at 10 µM (RAF1 (cRAF) Y340D Y341D; read-out: % Inhibition): 6%
inhibition at 10 µM (RAF1 (cRAF) Y340D Y341D; read-out: % Inhibition class): < 40%
inhibition at 10 µM (EPHB4; read-out: % Inhibition): 9%
inhibition at 10 µM (EPHB4; read-out: % Inhibition class): < 40%
inhibition at 10 µM (CDK5/p25; read-out: % Inhibition): 27%
inhibition at 10 µM (CDK5/p25; read-out: % Inhibition class): < 40%
inhibition at 10 µM (EPHA1; read-out: % Inhibition): 15%
inhibition at 10 µM (EPHA1; read-out: % Inhibition class): < 40%
inhibition at 10 µM (PAK4; read-out: % Inhibition): 29%
inhibition at 10 µM (PAK4; read-out: % Inhibition class): < 40%
inhibition at 10 µM (CSNK2A1 (CK2 alpha 1); read-out: % Inhibition): 5%
inhibition at 10 µM (CSNK2A1 (CK2 alpha 1); read-out: % Inhibition class): < 40%
